According to US5573999A, “β-substituted cinnamic acid derivative” (BASF Aktiengesellschaft, priority 1991, dated 1996):

Columns and labels:
[1] = system: mitochondrial respiration; assay: Inhibition of mitochondrial respiration (rate of reduction of cytochrome c in isolated mitochondria), yeast; format: biochemical, Saccharomyces cerevisiae; settings: DMSO control
Source text: In order to determine the effect of the compounds according to the invention on mitochondrial respiration it is first necessary to isolate the mitochondria from the organisms being investigated. For this, in the case of the yeast Saccharomyces cerevisiae, the cells in a 30 to 40% strength suspension of the yeast in an aqueous solution of 0.6M mannitol+0.01M tris[hydroxymethyl]-aminomethane+0.002M disodium ethylenediaminetetraacetate (pH 6.8) are disrupted in a glass bead mill, and the extract is fractionated by differential centrifugation at 1000× g and 12000× g. The mitochondria are in the pellet from the 12000× g centrifugation.
(§1) Used as control is a mixture with the equivalent amount of pure DMSO. The inhibition at the concentration of agent in each case is then calculated as follows [formula] where ΔE is the change in extinction, at is the change in time, [formula] is the reaction rate for the control and [formula] is the reaction rate for the sample x.
(§2) The inhibition was determined in each case at a test substance concentration of 1.8/10^-5mol/l .

[2] = system: mitochondrial respiration; assay: Inhibition of mitochondrial respiration (rate of reduction of cytochrome c in isolated mitochondria), house fly; format: biochemical, Musca domestica; settings: DMSO control
Source text: It is also possible similarly to isolate mitochondria from other organisms, e.g. from the phytopathogenic fungus Drechslera sorokiniana (synonym: Helminthosporium sativum), from the dermatophyte Trichophyton mentagrophytes, which is a human pathogen, and, for example, from the house fly (Musca domestica) as insect or from the spider mite Tetranychus urticae.
as §1, §2

| Compound | % inhibition of respiration at 1.8 × 10^-5 mol/l test substance, Saccharomyces cerevisiae [1] | % inhibition of respiration at 1.8 × 10^-5 mol/l test substance, Musca domestica [2] |
| --- | --- | --- |
| COC(=O)/C=C(/OC)c1ccccc1C [Compound 1.1, methyl (E)-β-methoxy-2-methylcinnamate] | 23% | – |
| COC(=O)/C=C(/OC)c1ccccc1OCc1csc(-c2ccc(F)cc2)n1 [Compound 1.71, methyl (E)-β-methoxy-2-[2-(4-fluorophenyl)-4-thiazolylmethyloxy]cinnamate] | 30% | 18% |
| COC(=O)/C=C(/OC)c1ccccc1Oc1cccc(C)c1 [Compound 1.90, methyl (E)-β-methoxy-2-(3-methylphenoxy)cinnamate] | 85% | – |
| COC(=O)/C=C(\OC)c1ccccc1Oc1cccc(C)c1 [Compound 1.91, methyl (Z)-β-methoxy-2-(3-methylphenoxy)cinnamate] | 22% | – |
| COC(=O)/C=C(\C)c1ccccc1CBr [Compound 1.167, methyl (E)-β-methyl-2-bromomethylcinnamate] | 99% | – |
| CCCCOc1ccc(OCc2ccccc2/C(=C\C(=O)OC)OC)cc1 [Compound 1a.37] | 98% | – |
| CCOC(=O)/C=C(/OC)c1ccccc1COc1ccc(/C(C)=N/OC)cc1C [Compound 1a.74, ethyl (E)-β-methoxy-2-[2-methyl-4-(1-methoximinoethyl)phenoxymethyl]cinnamate] | 99% | – |
| CCCOC(=O)/C=C(/OC)c1ccccc1COc1ccc(C(C)=NOC)cc1C [Compound 1a.75] | 70% | – |
| CCCCOC(=O)/C=C(/OC)c1ccccc1COc1ccc(C(C)=NOC)cc1C [Compound 1a.77] | 63% | – |
| CO/N=C(\C)c1ccc(OCc2ccccc2/C(=C\C(=O)ON=C(C)C)OC)c(C)c1 [Compound 1a.82] | 94% | – |
| C=CCOC(=O)/C=C(/OC)c1ccccc1COc1ccc(C(C)=NOC)cc1C [Compound 1a.83] | 78% | – |
| C#CCOC(=O)/C=C(/OC)c1ccccc1COc1ccc(C(C)=NOC)cc1C [Compound 1a.84] | 98% | – |
| CON=C(C)c1ccc(OCc2ccccc2/C(=C\C(=O)SC)OC)c(C)c1 [Compound 1a.86] | 97% | – |
| CO/N=C(\C)c1ccc(OCc2ccccc2/C(=C\C(N)=O)OC)c(C)c1 [Compound 1a.88, (E)-β-methoxy-2-[2-methyl-4-(1-methoximinoethyl)phenoxymethyl]cinnamide] | 99% | – |
| CNC(=O)/C=C(/OC)c1ccccc1COc1ccc(C(C)=NOC)cc1C [Compound 1a.89] | 99% | – |
| CCNC(=O)/C=C(/OC)c1ccccc1COc1ccc(C(C)=NOC)cc1C [Compound 1a.91] | 99% | – |
| CON=C(C)c1ccc(OCc2ccccc2/C(=C\C(=O)N(C)C)OC)c(C)c1 [Compound 1a.98] | 100% | – |
| CCCCN(C)C(=O)/C=C(/OC)c1ccccc1COc1ccc(C(C)=NOC)cc1C [Compound 1a.101] | 69% | – |
| COC(=O)/C=C(/C)c1ccccc1COc1ccccc1C [Compound 1a.108, methyl (Z)-β-methyl-2-(2-methylphenoxymethyl)cinnamate] | 98% | – |
| COC(=O)/C=C(\C)c1ccccc1COc1ccccc1C [Compound 1a.109, methyl (E)-β-methyl-2-(2-methylphenoxymethyl)cinnamate] | 31% | – |
| CO/N=C(\C)c1ccc(OCc2ccccc2/C(C)=C\C(=O)OC)c(C)c1 [Compound 1a.112, methyl (Z)-β-methyl-2-[2-methyl-4-(1-(E)-methoximinoethyl)phenoxy]methylcinnamate] | 99% | – |
| CO/N=C(\C)c1ccc(OCc2ccccc2/C(C)=C/C(=O)OC)c(C)c1 [Compound 1a.113, methyl (E)-β-methyl-2-[2-methyl-4-(1-(E)-methoximinoethyl)phenoxy]methylcinnamate] | 80% | – |
| COC(=O)/C=C(/OC)c1ccccc1CSc1nc(-c2ccccc2)cs1 [Compound 1a.162] | 76% | – |
| COC(=O)/C=C(/OC)c1ccccc1/C=C/c1ccccc1 [Compound 1a.233] | 88% | 89% |

| Compound | % inhibition of respiration at 1.8 × 10^-5 mol/l test substance, Saccharomyces cerevisiae [1] | % inhibition of respiration at 1.8 × 10^-5 mol/l test substance, Musca domestica [2] |
| --- | --- | --- |
| COC(=O)/C=C(/OC)c1ccccc1/C=C/c1cccc([N+](=O)[O-])c1 [Compound 1a.240] | 94% | 84% |
| COC(=O)/C=C(/OC)c1ccccc1/C=C\c1cccc([N+](=O)[O-])c1 [Compound 1a.241] | 20% | 9% |
| COC(=O)/C=C(/OC)c1ccccc1/C=C\c1ccccc1C(F)(F)F [Compound 1a.244] | 65% | 50% |
| COC(=O)/C=C(/OC)c1ccccc1/C=C/c1ccccc1C [Compound 1a.247] | 99% | – |
| COC(=O)/C=C(/OC)c1ccccc1/C=C/c1ccc(C)cc1 [Compound 1a.250] | 99% | – |
| COC(=O)/C=C(/OC)c1ccccc1/C=C\c1ccc(C)cc1 [Compound 1a.251] | 54% | – |
| COC(=O)/C=C(/OC)c1ccccc1/C=C/c1ccc(OCc2ccccc2)cc1 [Compound 1a.264, methyl 2-[2-(4-benzyloxyphenyl)-(E)-ethenyl]-(E)-β-methoxycinnamate] | 98% | – |
| COC(=O)/C=C(/OC)c1ccccc1/C=C/c1cccc(Oc2ccccc2)c1 [Compound 1a.271] | 92% | 94% |
| COC(=O)/C=C(/OC)c1ccccc1/C=C\c1cccc(Oc2ccccc2)c1 [Compound 1a.272] | 51% | 78% |
| COC(=O)/C=C(/OC)c1ccccc1/C=C/c1cc[nH]c1 [Compound 1a.288] | 50% | 22% |
| COC(=O)/C=C(/OC)c1ccccc1/C=C\c1ccoc1 [Compound 1a.293] | 65% | 27% |
| COC(=O)/C=C(/OC)c1ccccc1/C=C\c1cccs1 [Compound 1a.295] | 94% | 76% |
| COC(=O)/C=C(/OC)c1ccccc1/C=C\c1ccsc1 [Compound 1a.297] | 70% | 22% |
| COC(=O)/C=C(/OC)c1ccccc1/C=C/c1nnc(-c2ccccc2)s1 [Compound 1a.308] | 99% | – |
| COC(=O)/C=C(/OC)c1ccccc1/C=C/c1cnn(-c2cccc(Cl)c2)c1 [Compound 1a.316] | 98% | – |
| COC(=O)/C=C(/OC)c1ccccc1/C=C\c1cnn(-c2cccc(Cl)c2)c1 [Compound 1a.317] | 29% | – |
| COC(=O)/C=C(/OC)c1ccccc1/C=C\c1cnn(-c2ccc(OC)cc2)c1 [Compound 1a.319] | 11% | – |
| COC(=O)/C=C(/OC)c1ccccc1/C=C/c1cnn(-c2ccc(Cl)cc2)c1 [Compound 1a.320] | 98% | – |
| COC(=O)/C=C(/OC)c1ccccc1/C=C/c1noc(-c2ccc(Cl)cc2)c1C [Compound 1a.322] | 99% | – |
| COC(=O)/C=C(/OC)c1ccccc1/C=C/c1cc(CC(C)C)no1 [Compound 1a.324] | 99% | – |
| COC(=O)/C=C(/OC)c1ccccc1/C=C/C1CCCOC1 (centres unmarked) [Compound 1a.329] | 9% | – |
| COC(=O)/C=C(/OC)c1ccccc1/C=C/C1CCOC(c2ccccc2)C1 (centres unmarked) [Compound 1a.331] | 79% | – |
| COC(=O)/C=C(/OC)c1ccccc1/C=C/C1CCOC(C2CCCOC2)C1 (centres unmarked) [Compound 1a.333] | 20% | – |
| COC(=O)/C=C(/OC)c1ccccc1CON=C(c1ccccc1)c1ccc(Cl)cc1 [Compound 1a.358] | 99% | – |
